The record followed here is PubChem BioAssay AID1259407 (Chemical Carcinogenesis Research Information System (CCRIS), 2018).

The data set deals with CCRIS mutagenicity, Ames/micronucleus/aberration tests. Kind of data set: CCRIS mutagenicity studies.
Where [1] appears, read: Test System: AMES SALMONELLA TYPHIMURIUM, Strain/Indicator: TA98, Metabolic Activation: NONE, Method: PREINCUBATION
Setting [2] is: Test System: AMES SALMONELLA TYPHIMURIUM, Strain/Indicator: TA100, Metabolic Activation: NONE, Method: PREINCUBATION
Where [3] appears, read: Test System: AMES SALMONELLA TYPHIMURIUM, Strain/Indicator: TA1535, Metabolic Activation: NONE, Method: PREINCUBATION
[4] abbreviates: Test System: AMES SALMONELLA TYPHIMURIUM, Strain/Indicator: TA1537, Metabolic Activation: NONE, Method: PREINCUBATION
[5] abbreviates: Test System: AMES SALMONELLA TYPHIMURIUM, Strain/Indicator: TA100, Metabolic Activation: NONE, Method: STANDARD PLATE.

SMILES strings stand for the structures. Active and inactive are the calls of the source. The rule behind the calls is not given here.

With `CCCCCN(CCCCC)CCCCC`, the mutagenic call (Test System: AMES SALMONELLA TYPHIMURIUM, Strain/Indicator: TA98, Metabolic Activation: HAMSTER, LIVER, S-9, AROCLOR 1254 (10%), Method: PREINCUBATION) is “inactive; negative”; the mutagenic call under setting [1] was “inactive; negative”; the mutagenic call (Test System: AMES SALMONELLA TYPHIMURIUM, Strain/Indicator: TA98, Metabolic Activation: RAT, LIVER, S-9, AROCLOR 1254 (10%), Method: PREINCUBATION) is “inactive; negative”; the mutagenic call (Test System: AMES SALMONELLA TYPHIMURIUM, Strain/Indicator: TA100, Metabolic Activation: HAMSTER, LIVER, S-9, AROCLOR 1254 (10%), Method: PREINCUBATION) is “inactive; negative”; the mutagenic call under setting [2] was “inactive; negative”; the mutagenic call (Test System: AMES SALMONELLA TYPHIMURIUM, Strain/Indicator: TA100, Metabolic Activation: RAT, LIVER, S-9, AROCLOR 1254 (10%), Method: PREINCUBATION) is “inactive; negative”. Besides, the mutagenic call runs as follows: (Test System: AMES SALMONELLA TYPHIMURIUM, Strain/Indicator: TA1535, Metabolic Activation: HAMSTER, LIVER, S-9, AROCLOR 1254 (10%), Method: PREINCUBATION) “inactive; negative”; under setting [3], “inactive; negative”; (Test System: AMES SALMONELLA TYPHIMURIUM, Strain/Indicator: TA1535, Metabolic Activation: RAT, LIVER, S-9, AROCLOR 1254 (10%), Method: PREINCUBATION) “inactive; negative”; (Test System: AMES SALMONELLA TYPHIMURIUM, Strain/Indicator: TA1537, Metabolic Activation: HAMSTER, LIVER, S-9, AROCLOR 1254 (10%), Method: PREINCUBATION) “inactive; negative”; under setting [4], “inactive; negative”; (Test System: AMES SALMONELLA TYPHIMURIUM, Strain/Indicator: TA1537, Metabolic Activation: RAT, LIVER, S-9, AROCLOR 1254 (10%), Method: PREINCUBATION) “inactive; negative”.

Regarding `O=P([O-])([O-])OC(CCO)CCO.O=P([O-])([O-])OCC(O)CO.[Mn+2].[Mn+2]`, the mutagenic call (Test System: AMES SALMONELLA TYPHIMURIUM, Strain/Indicator: TA98, Metabolic Activation: NONE, Method: STANDARD PLATE) was “inactive; negative”; the mutagenic call (Test System: AMES SALMONELLA TYPHIMURIUM, Strain/Indicator: TA98, Metabolic Activation: RAT, LIVER, S-9, AROCLOR 1254, Method: STANDARD PLATE) was “inactive; negative”; the mutagenic call under setting [5] is “inactive; negative”; the mutagenic call (Test System: AMES SALMONELLA TYPHIMURIUM, Strain/Indicator: TA100, Metabolic Activation: RAT, LIVER, S-9, AROCLOR 1254, Method: STANDARD PLATE) is “inactive; negative”; the mutagenic call (Test System: AMES SALMONELLA TYPHIMURIUM, Strain/Indicator: TA1535, Metabolic Activation: NONE, Method: STANDARD PLATE) was “inactive; negative”; the mutagenic call (Test System: AMES SALMONELLA TYPHIMURIUM, Strain/Indicator: TA1535, Metabolic Activation: RAT, LIVER, S-9, AROCLOR 1254, Method: STANDARD PLATE) is “inactive; negative”. The mutagenic call is “inactive; negative” (Test System: AMES SALMONELLA TYPHIMURIUM, Strain/Indicator: TA1537, Metabolic Activation: NONE, Method: STANDARD PLATE); “inactive; negative” (Test System: AMES SALMONELLA TYPHIMURIUM, Strain/Indicator: TA1537, Metabolic Activation: RAT, LIVER, S-9, AROCLOR 1254, Method: STANDARD PLATE); “inactive; negative” (Test System: AMES SALMONELLA TYPHIMURIUM, Strain/Indicator: TA1538, Metabolic Activation: NONE, Method: STANDARD PLATE); “inactive; negative” (Test System: AMES SALMONELLA TYPHIMURIUM, Strain/Indicator: TA1538, Metabolic Activation: RAT, LIVER, S-9, AROCLOR 1254, Method: STANDARD PLATE); “inactive; negative” (Test System: E. COLI, Strain/Indicator: WP2, Metabolic Activation: NONE, Method: STANDARD PLATE); “inactive; negative” (Test System: E. COLI, Strain/Indicator: WP2, Metabolic Activation: RAT, LIVER, S-9, AROCLOR 1254, Method: STANDARD PLATE).

With `CC(C)C(=O)OCC(C)(C)C(O)C(C)C` (stereo unspecified), the mutagenic call was “inactive; negative” under setting [1]; “inactive; negative” (Test System: AMES SALMONELLA TYPHIMURIUM, Strain/Indicator: TA98, Metabolic Activation: RAT LIVER S-9, PHENOBARBITAL AND BETA-NAPHTHOFLAVONE, Method: PREINCUBATION); “inactive; negative” under setting [2]; “inactive; negative” (Test System: AMES SALMONELLA TYPHIMURIUM, Strain/Indicator: TA100, Metabolic Activation: RAT LIVER S-9, PHENOBARBITAL AND BETA-NAPHTHOFLAVONE, Method: PREINCUBATION); “inactive; negative” under setting [3]; “inactive; negative” (Test System: AMES SALMONELLA TYPHIMURIUM, Strain/Indicator: TA1535, Metabolic Activation: RAT LIVER S-9, PHENOBARBITAL AND BETA-NAPHTHOFLAVONE, Method: PREINCUBATION). Further, the mutagenic call runs as follows: under setting [4], “inactive; negative”; (Test System: AMES SALMONELLA TYPHIMURIUM, Strain/Indicator: TA1537, Metabolic Activation: RAT LIVER S-9, PHENOBARBITAL AND BETA-NAPHTHOFLAVONE, Method: PREINCUBATION) “inactive; negative”; (Test System: E.COLI, Strain/Indicator: WP2UVRA/PKM101, Metabolic Activation: NONE, Method: PREINCUBATION) “inactive; negative”; (Test System: E.COLI, Strain/Indicator: WP2UVRA/PKM101, Metabolic Activation: RAT LIVER S-9, PHENOBARBITAL AND BETA-NAPHTHOFLAVONE, Method: PREINCUBATION) “inactive; negative”.

As to `CCCCCCCCOC[N+](C)(C)Cc1ccccc1`, the mutagenic call (Test System: BACILLUS SUBTILIS, Strain/Indicator: H17/REC, Metabolic Activation: NONE, Method: STANDARD PLATE) was “inactive; negative” and the mutagenic call (Test System: BACILLUS SUBTILIS, Strain/Indicator: M45, Metabolic Activation: NONE, Method: STANDARD PLATE) was “inactive; negative”.

Turning to `CCCOS(=O)(=O)c1ccc(C)cc1`, the mutagenic call is, setting by setting: (End Point: IN VITRO MICRONUCLEUS, Test System: MOUSE LYMPHOMA L5178Y CELLS, Metabolic Activation: NONE) “inactive; negative; positive results only at highly excessively cytotoxic doses”; (End Point: IN VITRO MICRONUCLEUS, Test System: MOUSE LYMPHOMA L5178Y CELLS, Metabolic Activation: RAT, LIVER, S-9) “inactive; negative”; (End Point: In vitro micronucleus, Test System: Chinese Hamster Ovary (CHO-WBL) cells, Metabolic Activation: None) “inactive; negative”; under setting [5], “active; positive”; (Test System: AMES SALMONELLA TYPHIMURIUM, Strain/Indicator: TA100, Metabolic Activation: RAT, LIVER, S-9, Method: STANDARD PLATE) “active; positive”.
